In ChEMBL document CHEMBL1201862, “PubChem BioAssay data set” (2004):
Calls of active or inactive are those of the source.

Columns and labels:
HEK293 = test: Fluorescence-based counterscreen for potentiators or agonists of NPY-Y2: cell-based high-throughput dose response assay to identify inhibitors of cyclic nucleotide gated ion channel (CNGC) activity. In this assay, the parental HEK293 cell line transfected with a cyclic-nucleotide gated ion channel (CNGC)-based cAMP sensor is used to measure inhibition of isoproterenol-induced CNGC activity by test compound.; format: functional; conditions: Homo sapiens;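 also: stimulus is 1 µM isoproterenol at EC100 plus PDE inhibitor Ro 20-1724 at 25 µM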
[1] = target: T1, Neuropeptide Y receptor type 2 (Homo sapiens, UniProt P49146); test: Fluorescence-based cell-based high-throughput dose response assay for agonists of NPY-Y2. [Related pubchem assays: 1703 (Screening assay (CNGC inhibitors).), 1359 (Screening assay (NPY-Y2 potentiators or agonists).), 1304 (Screening assay (NPY-Y1 potentiators or agonists).), 1710 (Screening assay (NPY-Y2 agonists).), 1791 (Summary AID.)]; format: functional
T1 sequence (P49146 whole entry): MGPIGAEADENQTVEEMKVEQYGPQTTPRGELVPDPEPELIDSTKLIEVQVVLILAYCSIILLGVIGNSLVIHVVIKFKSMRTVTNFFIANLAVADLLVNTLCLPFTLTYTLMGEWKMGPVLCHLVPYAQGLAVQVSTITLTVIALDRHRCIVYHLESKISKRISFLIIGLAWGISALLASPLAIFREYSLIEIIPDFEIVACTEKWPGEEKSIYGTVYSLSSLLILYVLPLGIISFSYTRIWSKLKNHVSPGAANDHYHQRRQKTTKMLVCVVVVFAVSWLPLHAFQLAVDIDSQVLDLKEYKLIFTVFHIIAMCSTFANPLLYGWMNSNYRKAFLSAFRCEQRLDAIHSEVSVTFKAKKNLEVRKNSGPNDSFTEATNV

[2] = target: T2, Neuropeptide Y receptor type 1 (Homo sapiens, UniProt P25929); test: Fluorescence-based counterscreen for agonists of NPY-Y2: cell-based high-throughput dose response assay for agonists of NPY-Y1.; format: functional
T2 sequence (P25929 whole entry): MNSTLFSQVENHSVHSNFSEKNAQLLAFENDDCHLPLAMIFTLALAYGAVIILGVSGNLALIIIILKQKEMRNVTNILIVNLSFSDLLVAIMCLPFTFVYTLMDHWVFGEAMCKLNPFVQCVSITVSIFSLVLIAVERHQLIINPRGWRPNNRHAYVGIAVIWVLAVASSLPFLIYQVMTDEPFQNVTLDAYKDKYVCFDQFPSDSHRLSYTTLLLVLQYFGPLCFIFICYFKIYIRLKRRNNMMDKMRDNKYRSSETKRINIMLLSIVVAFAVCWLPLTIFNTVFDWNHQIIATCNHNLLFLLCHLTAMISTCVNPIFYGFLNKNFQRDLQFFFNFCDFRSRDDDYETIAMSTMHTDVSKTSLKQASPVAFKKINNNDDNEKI

Aminopeptidase N = target: T3, Aminopeptidase N (Plasmodium falciparum FcB1/Columbia, UniProt O96935); test: P. falciparum M1AAP inhibitors, biochemical, fluorogenic H-Leu-NHMec substrate, 1536-well (AID 1445); design: species or system Plasmodium falciparum 3D7, 3D7
T3 sequence (O96935 whole entry): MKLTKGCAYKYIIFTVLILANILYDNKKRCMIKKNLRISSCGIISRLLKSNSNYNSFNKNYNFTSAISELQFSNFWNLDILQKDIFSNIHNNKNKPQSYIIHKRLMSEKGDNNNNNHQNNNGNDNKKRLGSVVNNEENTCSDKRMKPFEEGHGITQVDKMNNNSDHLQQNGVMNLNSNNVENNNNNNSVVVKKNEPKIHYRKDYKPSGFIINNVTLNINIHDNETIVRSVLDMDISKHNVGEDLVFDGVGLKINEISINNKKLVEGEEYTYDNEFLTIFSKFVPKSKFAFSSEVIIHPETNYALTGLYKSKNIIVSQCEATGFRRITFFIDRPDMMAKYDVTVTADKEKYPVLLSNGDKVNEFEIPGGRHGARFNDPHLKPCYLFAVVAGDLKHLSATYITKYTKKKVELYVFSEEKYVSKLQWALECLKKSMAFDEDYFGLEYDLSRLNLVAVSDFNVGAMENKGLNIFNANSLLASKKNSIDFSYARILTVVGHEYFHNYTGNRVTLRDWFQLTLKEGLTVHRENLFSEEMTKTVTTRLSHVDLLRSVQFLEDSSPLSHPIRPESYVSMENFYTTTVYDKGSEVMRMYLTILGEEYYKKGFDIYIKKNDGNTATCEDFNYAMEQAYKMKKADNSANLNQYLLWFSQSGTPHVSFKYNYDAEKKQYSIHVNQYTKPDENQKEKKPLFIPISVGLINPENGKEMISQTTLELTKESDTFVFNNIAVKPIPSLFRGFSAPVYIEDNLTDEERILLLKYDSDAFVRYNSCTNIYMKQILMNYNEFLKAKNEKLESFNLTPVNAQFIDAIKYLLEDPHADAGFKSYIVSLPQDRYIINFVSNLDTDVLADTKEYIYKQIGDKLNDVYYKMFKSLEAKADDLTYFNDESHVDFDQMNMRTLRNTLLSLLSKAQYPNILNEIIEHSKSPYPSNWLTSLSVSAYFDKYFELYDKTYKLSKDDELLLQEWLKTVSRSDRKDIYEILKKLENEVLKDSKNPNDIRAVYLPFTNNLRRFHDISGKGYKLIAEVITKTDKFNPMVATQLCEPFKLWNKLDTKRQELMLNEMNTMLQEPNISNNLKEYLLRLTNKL

SUMO-activating enzyme [3] = target: T4, SUMO-activating enzyme (Homo sapiens, UniProt Q9UBT2); test: SUMOylation inhibitor hit validation, confirmation, SUMOylation inhibitor project, biochemical, AlphaScreen (AID 2018); format: functional
Large T antigen = Large T antigen (Simian virus 40, UniProt P03070); format: functional, Betapolyomavirus macacae;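 also: Confirmatory-stage PubChem screen for compounds that inhibit SV40 T antigen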
[4] = HIV-1 Env-mediated cell fusion inhibitors, dose response, CCR5-tropic Env (AID 2279); format: functional
SUMO-activating enzyme [5] = target: T4, SUMO-activating enzyme; test: inhibitors of in vitro SUMOylation cascade, primary screen, biochemical, HTRF, uHTS (AID 2006); format: protein-complex assay
[6] = target: T5, Induced myeloid leukemia cell differentiation protein Mcl-1 (Homo sapiens, UniProt Q07820); test: MCL1-BIM BH3 interaction inhibitors, dose response, biochemical, fluorescence polarization, BIM-BH3 peptide, 1536-well (AID 2217)
Bcl-2-like protein 1 = Bcl-2-like protein 1 (Homo sapiens, UniProt Q07817); test: BCL-XL inhibitors, dose response, selectivity assay for MCL1 inhibitor project, biochemical, fluorescence polarization, 1536-well (AID 2218)
[7] = target: T5, Induced myeloid leukemia cell differentiation protein Mcl-1; format: functional
Cysteine protease ATG4B = target: T6, Cysteine protease ATG4B (Homo sapiens, UniProt Q9Y4P1); format: functional;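 also: Fluorescence-based dose-response confirmation assay measuring inhibition of ATG4B activity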
T6 sequence (Q9Y4P1 whole entry): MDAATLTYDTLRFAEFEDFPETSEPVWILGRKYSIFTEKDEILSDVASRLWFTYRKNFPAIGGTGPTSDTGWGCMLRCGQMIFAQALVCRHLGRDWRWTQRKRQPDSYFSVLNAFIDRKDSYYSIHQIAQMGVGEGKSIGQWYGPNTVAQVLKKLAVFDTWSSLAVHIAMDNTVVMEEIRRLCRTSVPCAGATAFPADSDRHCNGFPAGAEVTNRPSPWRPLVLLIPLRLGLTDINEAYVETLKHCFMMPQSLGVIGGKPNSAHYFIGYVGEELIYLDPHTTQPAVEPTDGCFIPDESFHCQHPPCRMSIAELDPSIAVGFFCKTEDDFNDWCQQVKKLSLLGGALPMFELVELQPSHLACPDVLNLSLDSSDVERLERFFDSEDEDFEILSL

Phospholipase A2 = Phospholipase A2 (Homo sapiens, UniProt P04054); format: functional;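 also: confirmatory dose-response counterscreen on phospholipase A2, testing hits that came from an ultra-high-throughput screen for ATG4B inhibitors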
Vero = Vero cell cytotoxicity, cytotoxicity control for flavivirus capping enzyme inhibitors (AID 588742); format: functional; conditions: Chlorocebus sabaeus
Genome polyprotein = Genome polyprotein (dengue virus type 2, UniProt P29990); test: Dengue-2 NS5 methyltransferase inhibitors, primary screen, biochemical, confirmation dose response (AID 588689); format: functional
[8] = target: 26S proteasome non-ATPase regulatory subunit 14 (Homo sapiens, UniProt O00487); test: inhibition of proteasome subunit RPN11 – biochemical, fluorescence polarization, uHTS hits, confirmation (AID 602368); format: functional
[9] = target: 72 kDa type IV collagenase (Homo sapiens, UniProt P08253); test: Dose Response validation of uHTS RPN11 inhibitor hits using a MMP-2 Fluorescence assay.; format: functional
Prothrombin = Prothrombin (Bos taurus, UniProt P00735); test: thrombin inhibition, dose response, biochemical, fluorescence polarization, uHTS hits (AID 602369); format: functional
[10] = target: T7, Methionyl-tRNA synthetase, putative (Trypanosoma brucei brucei, UniProt Q38C91); format: functional, Trypanosoma brucei brucei strain 927/4 GUTat10.1
[11] = Counterscreen for inhibitors of Trypanosoma brucei methionyl tRNA synthetase (MetRS): Luminescence-based cell-based high throughput dose response assay to identify compounds that are cytotoxic to Jurkat human T lymphocyte cells.; format: functional
[12] = target: T7, Methionyl-tRNA synthetase, putative; format: functional, Trypanosoma brucei brucei strain 927/4 GUTat10.1; remark: listed apart in the source
[13] = Artemis endonuclease inhibitor potency, dose response, biochemical, fluorescence intensity (AID 720701); format: functional;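 also: Artemis endonuclease enzyme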
[14] = target: T8, RNA-binding protein pos-1 (Caenorhabditis elegans, UniProt G5EF15); test: inhibitors of POS-1/mex-3 RNA binding, dose response, biochemical, fluorescence polarization (AID 1964);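 also: purified POS-1 fused to maltose binding protein made in E. coli; potency of compounds blocking POS-1 binding to fluorescent RNA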
T8 sequence (G5EF15 whole entry): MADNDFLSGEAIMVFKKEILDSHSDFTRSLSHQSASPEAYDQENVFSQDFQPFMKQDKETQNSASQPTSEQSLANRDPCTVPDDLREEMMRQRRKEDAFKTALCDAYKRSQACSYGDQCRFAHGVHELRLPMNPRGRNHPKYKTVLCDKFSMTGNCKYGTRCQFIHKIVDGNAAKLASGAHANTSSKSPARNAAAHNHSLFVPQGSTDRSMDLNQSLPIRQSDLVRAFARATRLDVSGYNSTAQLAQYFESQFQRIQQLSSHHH

[15] = Counterscreen for IDE inhibitors: Luminescence-based cell-based high throughput dose response assay to identify compounds that are cytotoxic to HEK cells. [Related pubchem assays: 434962 (Primary screen (IDE inhibitors in singlicate)), 449730 (Counterscreen (Cytotoxicity in triplicate)), 435028 (Confirmation (IDE inhibitors in triplicate)) …; format: functional; conditions: HEK293
Insulin-degrading enzyme = target: T9, Insulin-degrading enzyme (Homo sapiens, UniProt P14735); test: Dose Response: Fluorescence polarization-based cell-based high throughput dose response assay for inhibitors of insulin-degrading enzyme (IDE). [Related pubchem assays: 434962 (Primary screen (IDE inhibitors in singlicate)), 449730 (Counterscreen (Cytotoxicity in triplicate)), 435028 (Confirmation (IDE inhibitors in triplicate)), 434984 (Summary …; format: functional
T9 sequence (P14735 whole entry): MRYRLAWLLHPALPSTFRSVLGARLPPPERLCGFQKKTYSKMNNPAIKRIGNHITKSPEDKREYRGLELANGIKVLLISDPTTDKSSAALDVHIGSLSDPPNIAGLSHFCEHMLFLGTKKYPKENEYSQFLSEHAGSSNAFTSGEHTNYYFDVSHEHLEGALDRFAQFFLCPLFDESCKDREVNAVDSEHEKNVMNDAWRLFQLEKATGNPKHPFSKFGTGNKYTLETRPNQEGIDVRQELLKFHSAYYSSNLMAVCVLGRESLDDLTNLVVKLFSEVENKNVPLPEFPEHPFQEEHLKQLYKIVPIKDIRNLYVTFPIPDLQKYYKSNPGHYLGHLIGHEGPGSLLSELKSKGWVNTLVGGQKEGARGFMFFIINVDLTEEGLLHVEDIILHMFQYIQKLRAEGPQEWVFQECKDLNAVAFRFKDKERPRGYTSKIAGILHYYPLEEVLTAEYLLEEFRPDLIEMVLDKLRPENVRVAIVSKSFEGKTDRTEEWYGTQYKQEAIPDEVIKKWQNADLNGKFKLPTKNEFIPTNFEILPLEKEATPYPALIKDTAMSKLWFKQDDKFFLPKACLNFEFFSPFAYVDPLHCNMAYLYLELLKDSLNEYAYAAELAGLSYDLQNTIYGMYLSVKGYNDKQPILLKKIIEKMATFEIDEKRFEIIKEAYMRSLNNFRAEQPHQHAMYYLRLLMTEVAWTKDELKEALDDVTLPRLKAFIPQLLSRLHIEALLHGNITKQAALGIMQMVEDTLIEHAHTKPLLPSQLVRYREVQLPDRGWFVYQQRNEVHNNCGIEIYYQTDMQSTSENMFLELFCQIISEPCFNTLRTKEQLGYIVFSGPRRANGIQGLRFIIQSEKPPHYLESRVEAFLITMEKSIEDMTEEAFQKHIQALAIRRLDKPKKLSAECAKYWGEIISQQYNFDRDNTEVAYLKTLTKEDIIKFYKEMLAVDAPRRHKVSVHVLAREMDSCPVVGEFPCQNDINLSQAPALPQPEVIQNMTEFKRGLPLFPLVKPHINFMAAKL

T7 sequence (Q38C91 whole entry): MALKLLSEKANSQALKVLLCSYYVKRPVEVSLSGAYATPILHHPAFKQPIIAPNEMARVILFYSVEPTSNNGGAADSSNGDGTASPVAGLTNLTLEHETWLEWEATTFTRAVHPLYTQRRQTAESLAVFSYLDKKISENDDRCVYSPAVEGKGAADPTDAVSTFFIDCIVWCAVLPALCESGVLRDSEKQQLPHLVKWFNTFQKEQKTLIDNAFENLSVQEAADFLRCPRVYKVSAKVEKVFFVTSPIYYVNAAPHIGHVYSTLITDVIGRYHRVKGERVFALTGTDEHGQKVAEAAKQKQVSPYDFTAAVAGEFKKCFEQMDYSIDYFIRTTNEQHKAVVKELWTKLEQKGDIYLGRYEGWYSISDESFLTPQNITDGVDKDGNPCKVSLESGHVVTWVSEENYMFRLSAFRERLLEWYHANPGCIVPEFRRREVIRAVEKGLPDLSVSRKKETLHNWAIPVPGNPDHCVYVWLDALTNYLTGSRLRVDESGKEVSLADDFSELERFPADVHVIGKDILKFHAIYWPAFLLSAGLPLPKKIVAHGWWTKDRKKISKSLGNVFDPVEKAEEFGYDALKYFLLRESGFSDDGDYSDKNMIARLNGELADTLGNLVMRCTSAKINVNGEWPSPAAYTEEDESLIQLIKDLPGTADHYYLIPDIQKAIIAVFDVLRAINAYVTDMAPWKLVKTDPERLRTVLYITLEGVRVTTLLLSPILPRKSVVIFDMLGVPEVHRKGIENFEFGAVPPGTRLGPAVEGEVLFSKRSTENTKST
T4 sequence (Q9UBE0 whole entry): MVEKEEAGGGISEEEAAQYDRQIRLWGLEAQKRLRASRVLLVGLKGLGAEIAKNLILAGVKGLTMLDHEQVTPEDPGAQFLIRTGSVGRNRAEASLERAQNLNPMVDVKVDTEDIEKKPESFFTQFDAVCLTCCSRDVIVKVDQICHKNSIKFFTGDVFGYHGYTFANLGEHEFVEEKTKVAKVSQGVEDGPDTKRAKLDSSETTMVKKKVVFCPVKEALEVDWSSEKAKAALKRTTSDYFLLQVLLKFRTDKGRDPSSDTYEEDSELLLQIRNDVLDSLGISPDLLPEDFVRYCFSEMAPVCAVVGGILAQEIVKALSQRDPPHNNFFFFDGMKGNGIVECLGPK
T4 sequence (Q9UBT2 whole entry): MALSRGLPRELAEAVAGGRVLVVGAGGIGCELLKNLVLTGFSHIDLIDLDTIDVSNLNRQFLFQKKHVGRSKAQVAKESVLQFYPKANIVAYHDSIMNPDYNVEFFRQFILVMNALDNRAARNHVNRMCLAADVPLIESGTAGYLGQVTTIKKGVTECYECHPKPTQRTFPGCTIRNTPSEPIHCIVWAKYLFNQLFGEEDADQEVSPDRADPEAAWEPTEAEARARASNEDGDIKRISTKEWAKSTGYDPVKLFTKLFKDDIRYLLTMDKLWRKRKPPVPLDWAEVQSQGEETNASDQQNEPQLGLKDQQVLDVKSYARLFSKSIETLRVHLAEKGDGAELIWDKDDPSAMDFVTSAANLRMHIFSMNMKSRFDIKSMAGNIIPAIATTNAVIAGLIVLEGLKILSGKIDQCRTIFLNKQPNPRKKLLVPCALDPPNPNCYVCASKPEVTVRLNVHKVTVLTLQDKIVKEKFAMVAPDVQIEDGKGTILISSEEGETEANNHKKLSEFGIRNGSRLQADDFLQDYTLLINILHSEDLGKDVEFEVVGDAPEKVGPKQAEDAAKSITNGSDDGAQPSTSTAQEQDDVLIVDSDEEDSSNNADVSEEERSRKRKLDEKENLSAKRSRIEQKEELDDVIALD
T5 sequence (Q07820 whole entry): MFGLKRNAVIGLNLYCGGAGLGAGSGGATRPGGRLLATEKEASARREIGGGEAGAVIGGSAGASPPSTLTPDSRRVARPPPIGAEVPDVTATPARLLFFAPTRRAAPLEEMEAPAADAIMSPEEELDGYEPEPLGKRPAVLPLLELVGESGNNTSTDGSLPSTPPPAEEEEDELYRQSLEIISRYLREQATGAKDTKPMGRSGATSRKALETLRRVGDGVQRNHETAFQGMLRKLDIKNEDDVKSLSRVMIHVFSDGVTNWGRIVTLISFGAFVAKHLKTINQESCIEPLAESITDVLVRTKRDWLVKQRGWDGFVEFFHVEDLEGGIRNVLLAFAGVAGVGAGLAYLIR
26S proteasome non-ATPase regulatory subunit 14, sequence (O00487 whole entry): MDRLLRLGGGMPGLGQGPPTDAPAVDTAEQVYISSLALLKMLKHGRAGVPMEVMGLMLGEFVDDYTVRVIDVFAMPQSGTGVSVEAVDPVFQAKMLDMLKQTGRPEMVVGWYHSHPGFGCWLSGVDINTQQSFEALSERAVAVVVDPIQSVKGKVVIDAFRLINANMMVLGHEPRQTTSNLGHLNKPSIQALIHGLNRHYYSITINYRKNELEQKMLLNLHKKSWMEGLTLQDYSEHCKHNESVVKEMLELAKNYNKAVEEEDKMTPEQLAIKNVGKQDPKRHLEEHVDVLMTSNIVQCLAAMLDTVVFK
Genome polyprotein, sequence (P29990 2492-3391 limits assumed): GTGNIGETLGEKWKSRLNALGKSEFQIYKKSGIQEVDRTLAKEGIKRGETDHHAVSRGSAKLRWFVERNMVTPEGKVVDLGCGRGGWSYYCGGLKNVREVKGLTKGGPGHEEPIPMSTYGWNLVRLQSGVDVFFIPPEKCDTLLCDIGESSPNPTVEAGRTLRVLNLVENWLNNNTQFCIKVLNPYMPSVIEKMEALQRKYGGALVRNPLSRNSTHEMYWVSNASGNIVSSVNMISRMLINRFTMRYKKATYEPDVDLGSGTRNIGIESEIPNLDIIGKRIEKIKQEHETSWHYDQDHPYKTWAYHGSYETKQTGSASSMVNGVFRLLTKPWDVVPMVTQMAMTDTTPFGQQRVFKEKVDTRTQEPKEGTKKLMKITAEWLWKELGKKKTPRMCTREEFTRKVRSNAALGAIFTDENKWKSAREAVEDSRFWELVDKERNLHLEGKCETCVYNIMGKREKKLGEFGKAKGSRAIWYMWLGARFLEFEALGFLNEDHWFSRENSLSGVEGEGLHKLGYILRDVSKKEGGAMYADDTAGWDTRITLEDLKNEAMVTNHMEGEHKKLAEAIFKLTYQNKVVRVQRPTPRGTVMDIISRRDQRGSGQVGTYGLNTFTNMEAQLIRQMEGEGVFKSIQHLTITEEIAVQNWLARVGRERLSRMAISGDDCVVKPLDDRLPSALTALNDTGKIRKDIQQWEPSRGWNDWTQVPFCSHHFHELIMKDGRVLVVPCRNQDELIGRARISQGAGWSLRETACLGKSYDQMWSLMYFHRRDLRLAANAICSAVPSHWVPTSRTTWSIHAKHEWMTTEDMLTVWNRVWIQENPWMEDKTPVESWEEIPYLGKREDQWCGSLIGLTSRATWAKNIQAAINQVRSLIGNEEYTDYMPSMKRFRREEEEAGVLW
72 kDa type IV collagenase, sequence (P08253 whole entry): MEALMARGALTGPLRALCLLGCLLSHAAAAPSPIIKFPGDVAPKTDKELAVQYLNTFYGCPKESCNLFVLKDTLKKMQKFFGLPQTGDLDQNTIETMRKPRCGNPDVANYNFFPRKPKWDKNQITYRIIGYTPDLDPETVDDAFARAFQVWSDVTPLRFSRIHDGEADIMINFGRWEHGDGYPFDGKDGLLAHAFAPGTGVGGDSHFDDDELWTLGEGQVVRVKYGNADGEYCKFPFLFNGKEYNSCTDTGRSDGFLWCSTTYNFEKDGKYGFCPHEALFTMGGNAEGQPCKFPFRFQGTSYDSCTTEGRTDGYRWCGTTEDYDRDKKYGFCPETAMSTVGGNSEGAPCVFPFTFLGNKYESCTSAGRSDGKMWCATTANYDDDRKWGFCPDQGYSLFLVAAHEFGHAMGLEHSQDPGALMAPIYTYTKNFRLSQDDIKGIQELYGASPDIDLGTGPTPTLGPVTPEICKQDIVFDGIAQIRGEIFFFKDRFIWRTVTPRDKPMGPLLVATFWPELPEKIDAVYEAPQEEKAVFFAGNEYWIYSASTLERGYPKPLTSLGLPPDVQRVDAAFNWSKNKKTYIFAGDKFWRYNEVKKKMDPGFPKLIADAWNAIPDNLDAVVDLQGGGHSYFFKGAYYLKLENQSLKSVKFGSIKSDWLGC
Large T antigen, sequence (P03070 whole entry, the tested form may be a part): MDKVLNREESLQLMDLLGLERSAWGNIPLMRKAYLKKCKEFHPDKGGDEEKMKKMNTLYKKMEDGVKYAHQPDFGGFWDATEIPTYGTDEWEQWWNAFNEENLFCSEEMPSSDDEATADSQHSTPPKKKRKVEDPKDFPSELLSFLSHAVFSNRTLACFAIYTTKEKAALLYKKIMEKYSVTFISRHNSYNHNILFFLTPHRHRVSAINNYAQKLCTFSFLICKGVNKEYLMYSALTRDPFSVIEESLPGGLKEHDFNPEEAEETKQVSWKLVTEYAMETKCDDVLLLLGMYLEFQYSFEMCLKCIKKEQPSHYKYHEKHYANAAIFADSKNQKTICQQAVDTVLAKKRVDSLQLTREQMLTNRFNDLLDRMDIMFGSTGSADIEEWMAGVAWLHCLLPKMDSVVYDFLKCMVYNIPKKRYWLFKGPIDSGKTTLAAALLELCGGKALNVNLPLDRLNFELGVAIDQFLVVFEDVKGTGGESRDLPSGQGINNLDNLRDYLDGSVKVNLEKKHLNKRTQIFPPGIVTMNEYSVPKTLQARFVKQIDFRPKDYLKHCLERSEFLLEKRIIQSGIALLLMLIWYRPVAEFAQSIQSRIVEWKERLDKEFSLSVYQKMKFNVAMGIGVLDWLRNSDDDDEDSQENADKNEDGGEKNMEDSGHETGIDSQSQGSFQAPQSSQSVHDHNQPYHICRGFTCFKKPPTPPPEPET
Bcl-2-like protein 1, sequence (Q07817 whole entry): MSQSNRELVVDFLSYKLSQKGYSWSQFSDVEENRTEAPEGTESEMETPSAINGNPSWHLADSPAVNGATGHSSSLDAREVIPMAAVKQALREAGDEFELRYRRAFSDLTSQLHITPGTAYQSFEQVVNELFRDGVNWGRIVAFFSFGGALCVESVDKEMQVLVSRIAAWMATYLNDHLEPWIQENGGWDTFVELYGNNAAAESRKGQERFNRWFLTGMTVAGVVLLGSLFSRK

O=C1C2CC=CCC2C(=O)N1c1ccc(NCCc2ccc(O)cc2)c([N+](=O)[O-])c1 (stereo not given)
EC50 (HEK293): 15.3 µM (not active)
EC50 [1]: > 35.4 µM (not active)
EC50 [2]: 26.5 µM (not active)

O=C(N/N=C/c1ccc(-c2ccc(S(=O)(=O)Nc3ncccn3)cc2)o1)c1cc2ccccc2cc1O
IC50 (Aminopeptidase N): 42.3 µM (active)
IC50 (SUMO-activating enzyme [3]): 2.21 µM (active)
IC50 (Large T antigen): 52.8 µM (active)
IC50 [4]: 17 µM (active)
IC50 (SUMO-activating enzyme [5]): 12.4 µM (active)
IC50 [6]: > 4.03 µM (active)
IC50 (Bcl-2-like protein 1): > 109 µM (not active)
IC50 [7]: 1.63 µM (active)
IC50 (Cysteine protease ATG4B): 5.98 µM (active)
IC50 (Phospholipase A2): 20.3 µM (inactive)
CC50 (Vero): 26 µM (active)
IC50 (Genome polyprotein): 76.5 µM (active)
IC50 [8]: 33.3 µM (active)
IC50 [9]: > 100 µM (inactive)
IC50 (Prothrombin): 75.6 µM (active)
IC50 [10]: 15.8 µM (inactive)
IC50 [11]: 83.3 µM (inactive)
IC50 [12]: 18.6 µM (inactive)
IC50 [13]: 11.4 µM (active)

COc1ccc(/N=C(\C)c2sc3ccccc3c2O)cc1
EC50 [14]: > 300 µM (not active)
IC50 [15]: > 55.7 µM (not active)
IC50 (Insulin-degrading enzyme): > 18.7 µM (not active)
